Values belong to the compound of their own block, whether it stands above or below them. Activity calls are given as the source filed them.
Columns and labels:
[1] = molecular target: T1, DNA repair and recombination protein RAD54-like (Homo sapiens, UniProt Q92698); assay: inhibitors of human RAD54 branch migration, confirmation, biochemical, fluorescence, cherry-picked samples, dose series (AID 651657); assay type: functional
T1 sequence (Q92698 whole entry): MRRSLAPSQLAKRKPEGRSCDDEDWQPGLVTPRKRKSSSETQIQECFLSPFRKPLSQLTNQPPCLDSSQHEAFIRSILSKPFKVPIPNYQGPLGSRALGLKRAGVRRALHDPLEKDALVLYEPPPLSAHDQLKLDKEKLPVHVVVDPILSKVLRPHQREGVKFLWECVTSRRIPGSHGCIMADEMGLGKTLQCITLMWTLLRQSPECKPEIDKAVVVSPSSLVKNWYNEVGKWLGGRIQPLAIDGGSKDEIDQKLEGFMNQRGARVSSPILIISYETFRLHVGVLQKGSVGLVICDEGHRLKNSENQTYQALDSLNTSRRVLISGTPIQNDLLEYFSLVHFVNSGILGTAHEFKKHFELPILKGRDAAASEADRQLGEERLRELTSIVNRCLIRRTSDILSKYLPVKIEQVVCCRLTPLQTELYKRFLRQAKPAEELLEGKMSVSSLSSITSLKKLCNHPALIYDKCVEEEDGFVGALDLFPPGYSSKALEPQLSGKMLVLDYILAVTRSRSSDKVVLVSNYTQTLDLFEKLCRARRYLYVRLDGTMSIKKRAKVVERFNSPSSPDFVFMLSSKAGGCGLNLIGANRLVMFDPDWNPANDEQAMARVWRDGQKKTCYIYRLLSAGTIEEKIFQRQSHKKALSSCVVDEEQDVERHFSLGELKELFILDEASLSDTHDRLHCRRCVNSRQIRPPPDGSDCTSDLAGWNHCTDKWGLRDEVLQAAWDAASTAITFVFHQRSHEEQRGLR

[2] = DNA binding of candidate compounds, dose response, artefact control for RAD54 inhibitor project, biochemical, fluorescence polarization, cherry-pick (AID 651673); assay type: functional
[3] = molecular target: T2, Sentrin-specific protease 1 (Homo sapiens, UniProt Q9P0U3); assay: Dose response confirmation of small molecule inhibitors of the catalytic domain of the SUMO protease, SENP1 in a FRET assay.; assay type: functional; conditions: read-out: IC50_Mean
T2 sequence (Q9P0U3 whole entry): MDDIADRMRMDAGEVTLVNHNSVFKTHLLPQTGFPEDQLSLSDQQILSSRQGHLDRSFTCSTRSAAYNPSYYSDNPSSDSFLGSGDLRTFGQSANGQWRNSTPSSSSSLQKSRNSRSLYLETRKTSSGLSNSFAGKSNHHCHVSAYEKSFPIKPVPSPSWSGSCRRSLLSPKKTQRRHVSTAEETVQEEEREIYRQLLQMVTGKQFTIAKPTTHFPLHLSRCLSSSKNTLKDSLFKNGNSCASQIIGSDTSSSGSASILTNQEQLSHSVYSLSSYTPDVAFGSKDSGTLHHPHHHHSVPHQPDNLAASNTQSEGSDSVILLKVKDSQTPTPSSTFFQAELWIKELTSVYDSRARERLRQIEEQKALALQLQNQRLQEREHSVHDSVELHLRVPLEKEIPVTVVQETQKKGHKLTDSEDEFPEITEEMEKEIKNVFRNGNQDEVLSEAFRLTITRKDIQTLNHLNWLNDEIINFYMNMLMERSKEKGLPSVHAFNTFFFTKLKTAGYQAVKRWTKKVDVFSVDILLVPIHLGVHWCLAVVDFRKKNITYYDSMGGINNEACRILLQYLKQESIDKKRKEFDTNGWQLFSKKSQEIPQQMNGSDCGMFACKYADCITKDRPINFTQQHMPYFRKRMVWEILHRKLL

Steroidogenic factor 1 = Steroidogenic factor 1 (Homo sapiens, UniProt Q13285); assay: Counterscreen for inverse agonists of the liver receptor homolog-1 (LRH-1; NR5A2): Luminescence-based cell-based high throughput dose response assay to identify inverse agonists of the Steroidogenic Factor 1 Nuclear Receptor (SF1; NR5A1).; assay type: functional
Sequence of Steroidogenic factor 1 (Q13285 whole entry): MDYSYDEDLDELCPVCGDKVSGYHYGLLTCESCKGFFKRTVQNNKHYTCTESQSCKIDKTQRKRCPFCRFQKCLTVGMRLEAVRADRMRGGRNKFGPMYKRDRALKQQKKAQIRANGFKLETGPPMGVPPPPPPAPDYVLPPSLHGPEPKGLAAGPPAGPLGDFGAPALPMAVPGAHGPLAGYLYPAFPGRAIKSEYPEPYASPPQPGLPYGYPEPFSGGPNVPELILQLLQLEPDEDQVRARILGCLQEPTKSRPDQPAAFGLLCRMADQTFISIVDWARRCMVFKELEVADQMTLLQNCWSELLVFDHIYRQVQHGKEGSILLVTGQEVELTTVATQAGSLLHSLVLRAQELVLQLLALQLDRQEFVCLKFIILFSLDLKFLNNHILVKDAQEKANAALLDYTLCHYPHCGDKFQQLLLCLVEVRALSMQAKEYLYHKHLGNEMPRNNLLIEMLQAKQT

[4] = StAR promoter reporter inhibition counter-screen, dose response, counter-screen for LRH-1 inverse agonist project, cell-based, luminescence, luciferase reporter (AID 651969); assay type: functional
[5] = molecular target: Nuclear receptor subfamily 5 group A member 2 (Homo sapiens, UniProt O00482); assay type: functional, cell-based;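 also: HEK293T cells transfected with LRH-1 and a StAR promoter luciferase reporter; potency for inhibitors that lower LRH-1 driven reporter light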
Sequence of Nuclear receptor subfamily 5 group A member 2 (O00482 whole entry): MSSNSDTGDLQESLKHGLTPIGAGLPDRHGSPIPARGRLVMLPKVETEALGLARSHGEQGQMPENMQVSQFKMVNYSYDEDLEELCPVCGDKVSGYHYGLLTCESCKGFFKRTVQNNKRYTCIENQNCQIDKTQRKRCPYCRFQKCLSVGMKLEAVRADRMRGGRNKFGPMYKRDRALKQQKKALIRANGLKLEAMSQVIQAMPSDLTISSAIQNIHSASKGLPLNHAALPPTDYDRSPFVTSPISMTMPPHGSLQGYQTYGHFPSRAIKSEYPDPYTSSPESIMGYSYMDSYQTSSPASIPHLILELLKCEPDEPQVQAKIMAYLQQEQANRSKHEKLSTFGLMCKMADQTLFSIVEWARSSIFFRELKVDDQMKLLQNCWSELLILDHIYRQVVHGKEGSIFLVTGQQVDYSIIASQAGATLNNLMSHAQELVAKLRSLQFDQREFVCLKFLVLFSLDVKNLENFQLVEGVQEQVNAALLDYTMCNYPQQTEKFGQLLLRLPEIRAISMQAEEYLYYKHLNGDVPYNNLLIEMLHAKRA

[6] = molecular target: T3, Probable nicotinate-nucleotide adenylyltransferase (Staphylococcus aureus (strain N315), UniProt P65502); assay type: functional, Staphylococcus aureus subsp. aureus N315; conditions: read-out: IC50_Mean;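 as to IC50 Mean: confirmatory dose-response retesting of NadD inhibitor hits first found in an ultra-high-throughput screen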
[7] = molecular target: T3, Probable nicotinate-nucleotide adenylyltransferase; assay type: functional, Staphylococcus aureus subsp. aureus N315
[8] = molecular target: Dual specificity tyrosine-phosphorylation-regulated kinase 1A (Rattus norvegicus, UniProt Q63470); assay type: biochemical, Homo sapiens
[9] = molecular target: T4, Tyrosine-protein phosphatase non-receptor type 22 (Homo sapiens, UniProt Q9Y2R2); assay: LYP phosphatase inhibition for selectivity, dose response, selectivity assay for LMPTP inhibitor project, biochemical, fluorescence, LYP catalytic domain (AID 652006); assay type: functional; conditions: read-out: IC50_Mean
T4 sequence (Q9Y2R2 whole entry): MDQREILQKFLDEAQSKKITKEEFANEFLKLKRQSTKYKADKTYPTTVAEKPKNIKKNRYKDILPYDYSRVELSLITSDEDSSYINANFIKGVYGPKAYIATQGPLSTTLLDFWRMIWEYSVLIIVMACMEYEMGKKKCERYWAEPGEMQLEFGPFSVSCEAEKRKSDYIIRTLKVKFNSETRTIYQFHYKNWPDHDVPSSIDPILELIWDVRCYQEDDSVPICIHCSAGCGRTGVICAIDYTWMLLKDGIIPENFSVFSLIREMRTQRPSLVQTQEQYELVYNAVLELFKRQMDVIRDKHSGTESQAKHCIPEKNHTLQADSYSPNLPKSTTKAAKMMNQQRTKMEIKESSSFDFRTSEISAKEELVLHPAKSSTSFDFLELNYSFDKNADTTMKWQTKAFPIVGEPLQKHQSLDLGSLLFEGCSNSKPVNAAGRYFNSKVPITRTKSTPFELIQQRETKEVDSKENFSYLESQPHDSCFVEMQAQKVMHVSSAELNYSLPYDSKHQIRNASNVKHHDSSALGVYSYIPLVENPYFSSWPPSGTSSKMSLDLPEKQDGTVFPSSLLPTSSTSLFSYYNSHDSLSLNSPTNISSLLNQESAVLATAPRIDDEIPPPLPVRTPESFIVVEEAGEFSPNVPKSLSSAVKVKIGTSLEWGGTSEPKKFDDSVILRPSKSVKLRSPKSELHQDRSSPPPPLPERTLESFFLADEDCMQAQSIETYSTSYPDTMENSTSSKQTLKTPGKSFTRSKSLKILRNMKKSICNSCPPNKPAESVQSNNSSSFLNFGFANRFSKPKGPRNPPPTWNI

[10] = molecular target: T5, Low molecular weight phosphotyrosine protein phosphatase (Homo sapiens, UniProt P24666); assay type: functional; conditions: read-out: IC50_Mean
T5 sequence (P24666 whole entry): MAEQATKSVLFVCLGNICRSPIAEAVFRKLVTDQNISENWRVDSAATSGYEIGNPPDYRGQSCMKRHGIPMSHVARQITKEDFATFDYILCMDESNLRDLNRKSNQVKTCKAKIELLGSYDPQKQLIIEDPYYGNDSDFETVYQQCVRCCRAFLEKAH

[11] = molecular target: T5, Low molecular weight phosphotyrosine protein phosphatase; assay type: functional; conditions: read-out: IC50_Mean; remark: listed apart in the source
Estrogen receptor = molecular target: T6, Estrogen receptor (Homo sapiens, UniProt P03372);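 also: potency for inhibiting coactivator peptide recruitment to the receptor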
T6 sequence (P03372 whole entry): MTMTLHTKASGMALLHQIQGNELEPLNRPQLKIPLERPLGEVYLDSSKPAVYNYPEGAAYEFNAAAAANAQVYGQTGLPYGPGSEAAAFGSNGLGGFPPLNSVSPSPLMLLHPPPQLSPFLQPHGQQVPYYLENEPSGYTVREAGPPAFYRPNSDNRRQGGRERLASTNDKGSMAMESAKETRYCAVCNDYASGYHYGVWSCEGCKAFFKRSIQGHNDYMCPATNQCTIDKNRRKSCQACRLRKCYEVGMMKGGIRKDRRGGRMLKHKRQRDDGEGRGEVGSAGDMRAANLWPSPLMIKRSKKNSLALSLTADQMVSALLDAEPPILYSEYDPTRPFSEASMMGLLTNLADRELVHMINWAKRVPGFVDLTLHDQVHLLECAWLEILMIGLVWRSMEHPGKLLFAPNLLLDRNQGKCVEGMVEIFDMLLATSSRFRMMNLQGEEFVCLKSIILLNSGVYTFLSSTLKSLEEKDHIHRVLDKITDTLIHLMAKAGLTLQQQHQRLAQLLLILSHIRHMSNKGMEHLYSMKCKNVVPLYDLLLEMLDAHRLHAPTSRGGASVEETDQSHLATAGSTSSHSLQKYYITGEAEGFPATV

[12] = molecular target: Photoreceptor-specific nuclear receptor (Homo sapiens, UniProt Q9Y5X4); assay type: functional, cell-based;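 also: CHO-S cells with Gal4-NCOR and VP16-NR2E3 two-hybrid luciferase reporter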
Sequence of Photoreceptor-specific nuclear receptor (Q9Y5X4 whole entry, the tested form may be a part): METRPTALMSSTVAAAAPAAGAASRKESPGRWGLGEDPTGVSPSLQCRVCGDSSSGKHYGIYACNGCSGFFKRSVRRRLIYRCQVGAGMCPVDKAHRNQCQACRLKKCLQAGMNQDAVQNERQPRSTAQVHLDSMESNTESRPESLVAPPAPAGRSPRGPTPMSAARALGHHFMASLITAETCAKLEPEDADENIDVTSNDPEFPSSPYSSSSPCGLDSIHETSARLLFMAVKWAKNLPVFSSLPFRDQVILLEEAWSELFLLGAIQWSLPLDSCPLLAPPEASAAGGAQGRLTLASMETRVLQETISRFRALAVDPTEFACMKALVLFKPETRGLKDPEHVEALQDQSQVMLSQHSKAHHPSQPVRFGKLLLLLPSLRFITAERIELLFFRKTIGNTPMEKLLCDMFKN

[13] = molecular target: ADP-ribosylation factor GTPase-activating protein 1 (Rattus norvegicus, UniProt Q62848); assay: Fluorescence polarization-based biochemical high throughput dose response screening assay to identify inhibitors of ADP-ribosylation factor GTPase activating protein 1 (ARFGAP1).; assay type: functional
Sequence of ADP-ribosylation factor GTPase-activating protein 1 (Q62848 whole entry, the tested form may be a part): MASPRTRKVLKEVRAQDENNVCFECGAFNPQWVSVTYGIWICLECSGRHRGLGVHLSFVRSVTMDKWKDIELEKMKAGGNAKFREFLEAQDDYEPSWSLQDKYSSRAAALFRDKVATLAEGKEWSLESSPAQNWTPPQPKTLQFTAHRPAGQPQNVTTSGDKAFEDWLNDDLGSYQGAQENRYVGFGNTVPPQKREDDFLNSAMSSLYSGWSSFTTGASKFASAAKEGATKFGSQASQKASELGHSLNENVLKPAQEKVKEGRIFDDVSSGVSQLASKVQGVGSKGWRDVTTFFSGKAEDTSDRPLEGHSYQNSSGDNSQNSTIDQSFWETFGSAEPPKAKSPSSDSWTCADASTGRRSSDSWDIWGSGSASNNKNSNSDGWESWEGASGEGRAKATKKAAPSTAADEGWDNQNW

[14] = molecular target: Arf-GAP with SH3 domain, ANK repeat and PH domain-containing protein 1 (Homo sapiens, UniProt Q9ULH1); assay type: functional;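 also: biochemical fluorescence polarization dose–response screen measuring inhibition of ASAP1; ASAP1 GAP domain stimulating GTP hydrolysis by truncated human ARF1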
Sequence of Arf-GAP with SH3 domain, ANK repeat and PH domain-containing protein 1 (Q9ULH1 whole entry, the tested form may be a part): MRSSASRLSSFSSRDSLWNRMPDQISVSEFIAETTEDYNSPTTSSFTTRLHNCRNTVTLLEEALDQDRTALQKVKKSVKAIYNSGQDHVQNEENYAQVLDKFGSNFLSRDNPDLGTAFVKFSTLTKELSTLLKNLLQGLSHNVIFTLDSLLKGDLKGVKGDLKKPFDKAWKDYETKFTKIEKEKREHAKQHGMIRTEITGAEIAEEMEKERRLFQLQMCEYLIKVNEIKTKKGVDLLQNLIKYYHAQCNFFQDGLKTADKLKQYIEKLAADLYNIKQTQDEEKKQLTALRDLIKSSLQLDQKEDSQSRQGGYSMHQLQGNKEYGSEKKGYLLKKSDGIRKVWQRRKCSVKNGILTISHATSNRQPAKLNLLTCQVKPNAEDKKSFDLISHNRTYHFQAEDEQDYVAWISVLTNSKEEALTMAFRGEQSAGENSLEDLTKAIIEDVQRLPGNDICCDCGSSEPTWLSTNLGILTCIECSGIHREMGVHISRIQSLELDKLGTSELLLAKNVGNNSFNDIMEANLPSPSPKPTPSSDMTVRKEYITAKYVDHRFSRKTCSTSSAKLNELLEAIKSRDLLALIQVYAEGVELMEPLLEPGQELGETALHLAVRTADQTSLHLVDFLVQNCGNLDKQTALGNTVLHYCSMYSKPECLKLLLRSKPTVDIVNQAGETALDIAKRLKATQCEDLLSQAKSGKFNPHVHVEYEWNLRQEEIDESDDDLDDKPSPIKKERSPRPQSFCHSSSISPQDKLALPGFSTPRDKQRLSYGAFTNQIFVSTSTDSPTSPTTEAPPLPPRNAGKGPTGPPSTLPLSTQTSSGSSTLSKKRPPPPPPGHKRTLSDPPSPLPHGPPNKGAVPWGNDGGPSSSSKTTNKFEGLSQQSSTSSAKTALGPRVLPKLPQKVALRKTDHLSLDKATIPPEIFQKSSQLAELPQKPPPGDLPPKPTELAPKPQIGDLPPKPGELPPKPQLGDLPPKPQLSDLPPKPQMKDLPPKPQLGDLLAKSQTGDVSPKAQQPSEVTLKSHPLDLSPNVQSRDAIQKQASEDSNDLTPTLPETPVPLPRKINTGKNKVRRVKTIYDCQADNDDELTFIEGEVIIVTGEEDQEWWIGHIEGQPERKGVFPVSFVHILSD

Paired box protein Pax-8 = Paired box protein Pax-8 (Homo sapiens, UniProt Q06710); assay: inhibitors of PAX8-driven TPO luciferase reporter, dose response, RMG-I cells, cherry-pick (AID 687027); assay type: functional, cell-based;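 also: luciferase reporter driven by Pax8 target thyroperoxidase promoter measured by SteadyGlo luminescence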
Sequence of Paired box protein Pax-8 (Q06710 whole entry): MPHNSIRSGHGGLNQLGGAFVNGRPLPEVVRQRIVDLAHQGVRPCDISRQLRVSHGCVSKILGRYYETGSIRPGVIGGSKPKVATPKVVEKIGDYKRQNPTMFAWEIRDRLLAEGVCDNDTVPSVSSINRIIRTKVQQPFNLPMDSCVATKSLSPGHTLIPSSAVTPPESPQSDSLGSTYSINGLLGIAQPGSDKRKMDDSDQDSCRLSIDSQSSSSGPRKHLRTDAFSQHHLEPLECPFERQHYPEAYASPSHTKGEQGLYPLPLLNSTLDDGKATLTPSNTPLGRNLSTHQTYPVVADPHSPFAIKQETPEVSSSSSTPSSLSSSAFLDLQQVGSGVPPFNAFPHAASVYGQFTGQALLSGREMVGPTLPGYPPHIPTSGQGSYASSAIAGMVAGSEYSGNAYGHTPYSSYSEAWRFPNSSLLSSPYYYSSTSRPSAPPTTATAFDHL

[15] = NIH/3T3 fibroblast cytotoxicity, dose response, cytotoxicity control for T. cruzi growth inhibitor project, cell-based, cherry-pick samples, set 2 (AID 651817); assay type: functional; conditions: NIH3T3
[16] = molecular target: T2, Sentrin-specific protease 1; assay: potency of human SENP1 inhibitors, dose response, biochemical, kinetic FRET (AID 651697); assay type: functional; conditions: read-out: IC50_Mean

IC50 [6]: 36.1 µM (active) | IC50 [7]: 12.7 µM (active)
Structure (SMILES): CC(C)(C)n1nc2c(c1NC(=O)c1ccc(S(=O)(=O)N3CCCC3)cc1)CSC2

AC50 [8]: 6.73 µM (active) | IC50 [9]: 80 µM (inactive) | IC50 [10]: 6.78 µM (active) | IC50 [11]: 22.7 µM (inactive)
Structure (SMILES): Cc1ccccc1Nc1cc(C)c2c(O)cccc2n1

IC50 (Estrogen receptor): 20.8 µM (active) | IC50 [12]: 0.185 µM (active) | IC50 [13]: 37.6 µM (inactive) | IC50 [14]: 23.6 µM (inactive)
Structure (SMILES): O=C(CSc1nnnn1-c1ccccc1)Nc1nsc(-c2ccc(Cl)cc2)n1

IC50 [16]: 5.42 µM (active) | IC50 [3]: 4.9 µM (active)
Structure (SMILES): CCN(CC(=O)Nc1ccc(NC(C)=O)cc1)C(=O)CSc1ncnc2sc(C)c(C)c12

More lines, now with the values behind:

Structure (SMILES): CCN(CC)CCNc1cccc2sc3ccccc3c(=O)c12
AC50 [1]: 6.59 µM (active) | AC50 [2]: 51.4 µM (active) | IC50 [3]: 46.3 µM (inactive)

Structure (SMILES): COc1ccc(CCNC(=O)COC(=O)c2cccn2C)cc1
IC50 (Steroidogenic factor 1): 7.32 µM (active) | IC50 [4]: 35.9 µM (inactive) | IC50 [5]: 35.9 µM (inactive)

Structure (SMILES): Cc1ccc(S(=O)(=O)Nc2ccc3c(c2)CC(=O)N([C@H](C)CO)C[C@H](C)[C@@H](CN(C)Cc2ccc(Cl)c(Cl)c2)O3)cc1
AC50 (Paired box protein Pax-8): 13.3 µM (active) | AC50 [15]: 13 µM (active)
